From US6486199B1, “Spiro and dispiro 1,2,4-trioxolane antimalarials” (Medicines for Malaria Venture MMV International Centre …, priority 2001, dated 2002)
In brackets after ≈: the same amount, converted by molar mass. Marks after values point to notes of the source that are not given here.

Legend:
[1] = system: ANKA strain of P. Berghei; assay: single dose STI in vivo screen in infected Moro SPF mice; conditions: for Activity (%) po / Activity (%) sc: percent reduction in parasitemia day 3 post-infection; for antimalarial activity, overall assessment: overall judgement of in vitro and in vivo data of Table 2; for in vivo activity: 10 mg/kg po/sc data of Table 2
Procedure: In the single dose STI in vivo screen, Moro SPF mice infected with the ANKA strain of P. Berghei (groups of three mice) were treated on day one post-infection with trioxolanes dissolved or suspended in 3% ethanol and 7% Tween 80. […] Antimalarial activity was measured by percent redution in parasitemia on day three post-infection and survival times compared to an untreated control group. Survival to day 30 post-infection is considered to be a cure.

P. berghei [2] = assay: 1-day Peters test against P. berghei in vivo; conditions: for oral activity based on po ED50/ED90 values: ranking among trioxolanes and controls
[3] = system: chloroquine-sensitive NF54 strain of P. falciparum; assay: in vitro screen against chloroquine-sensitive NF54 strain of P. falciparum; type: cell-based; conditions: in vitro, NF54 strain
P. berghei [4] = assay: 4-day Peters test against P. berghei in vivo; conditions: 4 day
[5] = differential scanning calorimetry (DSC), thermal stability; type: physicochemical; conditions: thermal decomposition
[6] = system: 21-day-old schistosomules of Schistosoma mansoni; assay: effect on 21-day-old schistosomules in mice; type: in vivo; conditions: single 200 mg/kg per os; for FWR (%): female worm reduction rate; for Mean female worm burden: mean ± standard deviation; for TWR (%): total worm reduction rate
Procedure: […] Each group was treated per os with OZ compounds at a single dose of 200 mg/kg. Untreated mice served as the control. All groups were killed 4 weeks after treatment and the liver and intestine were removed and separated. The liver and intestine were compressed and alive male and female worms could be seen and counted. The effect of the compounds was evaluated by mean total and female worm burden.

[7] = system: adult schistosomes (49-day-old) of Schistosoma mansoni; assay: effect on adult schistosomes (49-day-old) in mice; type: in vivo; conditions: single 400 mg/kg per os; for TWR (%): total worm reduction rate; for Mean total worm burden: x ± SD
Procedure: Mice were infected with 100 Schistosoma mansoni cercariae […]. Each group was treated per os with OZ compounds at a single dose of 400 mg/kg. Untreated mice served as the control. All groups were killed 4 weeks after treatment and the liver and intestine were removed and separated. The liver and intestine were compressed and alive male and female worms could be seen and counted.

[8] = system: chloroquine-resistant K1 strain of P. falciparum; assay: in vitro screen against chloroquine-resistant K1 strain of P. falciparum; type: cell-based; conditions: in vitro; for in vitro potency: strains not distinguished

CCO[C@H]1O[C@@H]2O[C@@]3(C)CC[C@H]4[C@H](C)CC[C@@H]([C@H]1C)[C@@]24OO3 [Arteether, arteether, reference compound]
Activity (%) po ([1]; single 10 mg/kg po): 98%
Activity (%) sc ([1]; single 10 mg/kg sc): 100%
Activity (%) po ([1]; single 100 mg/kg po): 99.98%
Activity (%) sc ([1]; single 100 mg/kg sc): 100%
Survival (days) po ([1]; single 10 mg/kg po): 8 days
Survival (days) sc ([1]; single 10 mg/kg sc): 9.7 days
Survival (days) po ([1]; single 100 mg/kg po, survival to day 30 = cure): 12 days
Survival (days) sc ([1]; single 100 mg/kg sc, survival to day 30 = cure): 26.3 days
P. berghei (1 day) ED50 po (P. berghei [2]): 2.4 mg/kg
P. berghei (1 day) ED90 po (P. berghei [2]): 6.8 mg/kg
IC50 (ng/ml) NF54 [3]: 0.54 ng/mL (≈ 1.73 nM)

O=C1CC2CC3(CC2C1)OOC1(O3)C2CC3CC(C2)CC1C3 (stereo not drawn) [OZ12, Adamantane-2-spiro-3′-1′,2′,4′-trioxolane-5′-spiro-3″-7″-oxo-cis-bicyclo[3.3.0]octane]
P. berghei (4 day) ED50 po (P. berghei [4]): 6.8 mg/kg
P. berghei (4 day) ED90 po (P. berghei [4]): 10.5 mg/kg
P. berghei (4 day) ED50 sc (P. berghei [4]): 0.8 mg/kg
P. berghei (4 day) ED90 sc (P. berghei [4]): 1.4 mg/kg
Tm dec. (° C.) [5]: 149.8 °C

CON=C1CCC2(CC1)OOC1(O2)C2CC3CC(C2)CC1C3 (centres unmarked) [OZ15, Adamantane-2-spiro-3′-8′-methoxyimino-1′,2′,4′-trioxaspiro[4.5]decane]
P. berghei (4 day) ED50 po (P. berghei [4]): 2.9 mg/kg
P. berghei (4 day) ED90 po (P. berghei [4]): 6.3 mg/kg
P. berghei (4 day) ED50 sc (P. berghei [4]): 0.7 mg/kg
P. berghei (4 day) ED90 sc (P. berghei [4]): 1.1 mg/kg
FWR (%) [6]: 70%
Mean female worm burden [6]: 3.8 ± 2.4^b
TWR (%) [6]: 63%
Percentage of dead worm [7]: 10 (21/210)
Total dead worm [7]: 21
TWR (%) [7]: 0%
Mean total worm burden [7]: 37.8 ± 20.6
P. berghei (1 day) ED50 po (P. berghei [2]): 3.1 mg/kg
P. berghei (1 day) ED90 po (P. berghei [2]): 5.9 mg/kg
P. berghei (1 day) ED50 sc (P. berghei [2]): 0.7 mg/kg
P. berghei (1 day) ED90 sc (P. berghei [2]): 2.6 mg/kg
Tm dec. (° C.) [5]: 157.8 °C

CC(C)(C)C1CCC2(CC1)OOC1(O2)C2CC3CC(C2)CC1C3 (centres unmarked) [OZ18, Adamantane-2-spiro-3′-8′-t-butyl-1′,2′,4′-trioxaspiro[4.5]decane]
FWR (%) [6]: 9%
Mean female worm burden [6]: 11.4 ± 2.7^a
TWR (%) [6]: 12%
Percentage of dead worm [7]: 0
Total dead worm [7]: 0
TWR (%) [7]: 0.6%
Mean total worm burden [7]: 35.6 ± 7.2^a
antimalarial activity, overall assessment [1]: completely inactive
Activity (%) po ([1]; single 10 mg/kg po): 0/0%
Activity (%) sc ([1]; single 10 mg/kg sc): 0/0%
Tm dec. (° C.) [5]: 166.5 °C

c1ccc(CON=C2CCC3(CC2)OOC2(O3)C3CC4CC(C3)CC2C4)cc1 (centres unmarked) [OZ19, Adamantane-2-spiro-3′-8′-benzyloxyimino-1′,2′,4′-trioxaspiro[4.5]decane]
P. berghei (4 day) ED50 po (P. berghei [4]): <10/>10 mg/kg
P. berghei (4 day) ED90 po (P. berghei [4]): <10/>10 mg/kg
P. berghei (1 day) ED50 po (P. berghei [2]): 3.4 mg/kg
P. berghei (1 day) ED90 po (P. berghei [2]): 9.4 mg/kg
P. berghei (1 day) ED50 sc (P. berghei [2]): 1.8 mg/kg
P. berghei (1 day) ED90 sc (P. berghei [2]): 3.6 mg/kg
in vitro potency, fold less potent than the analog [8]: ~2 fold
Tm dec. (° C.) [5]: 157.8 °C

O=C(c1ccccc1)N1CCC2(CC1)OOC1(O2)C2CC3CC(C2)CC1C3 (centres unmarked) [OZ24, Adamantane-2-spiro-3′-8′-benzoyl-1′,2′,4′-trioxa-8′-azaspiro[4.5]decane]
P. berghei (4 day) ED50 po (P. berghei [4]): <10/>10 mg/kg
P. berghei (4 day) ED90 po (P. berghei [4]): <10/>10 mg/kg
P. berghei (1 day) ED50 po (P. berghei [2]): 3.9 mg/kg
P. berghei (1 day) ED90 po (P. berghei [2]): 9.0 mg/kg
P. berghei (1 day) ED90 sc (P. berghei [2]): NA/2.1 mg/kg
Tm dec. (° C.) [5]: 154.9 °C

CCCC1CCC2(CC1)OOC1(O2)C2CC3CC(C2)CC1C3 (centres unmarked) [OZ25, Adamantane-2-spiro-3′-8′-propyl-1′,2′,4′-trioxaspiro[4.5]decane]
P. berghei (4 day) ED50 po (P. berghei [4]): 1.2 mg/kg
P. berghei (4 day) ED90 po (P. berghei [4]): 3.7 mg/kg
P. berghei (4 day) ED50 sc (P. berghei [4]): 2.2 mg/kg
P. berghei (4 day) ED90 sc (P. berghei [4]): 3.7 mg/kg
antimalarial activity, overall assessment [1]: excellent activity
P. berghei (1 day) ED50 po (P. berghei [2]): 1.9 mg/kg
P. berghei (1 day) ED90 po (P. berghei [2]): 3.1 mg/kg
P. berghei (1 day) ED50 sc (P. berghei [2]): 1.7 mg/kg
P. berghei (1 day) ED90 sc (P. berghei [2]): 3.0 mg/kg
oral activity based on po ED50/ED90 values (P. berghei [2]): only slightly less orally active than OZ11
Tm dec. (° C.) [5]: 167.7 °C

c1ccc2c(c1)COC1(CCC3(CC1)OOC1(O3)C3CC4CC(C3)CC1C4)OC2 (centres unmarked) [OZ31, Adamantane-2-spiro-3′-11′,12′-benzo-1′,2′,4′, 9′,14′-pentaoxadispiro[4.2.6.2]hexadecane]
Activity (%) po ([1]; single 10 mg/kg po): 99.95/99.95%
Activity (%) sc ([1]; single 10 mg/kg sc): 99.95/99.95%
P. berghei (1 day) ED50 po (P. berghei [2]): 1.6 mg/kg
P. berghei (1 day) ED90 po (P. berghei [2]): 3.9 mg/kg
P. berghei (1 day) ED50 sc (P. berghei [2]): 1.1 mg/kg
P. berghei (1 day) ED90 sc (P. berghei [2]): 2.4 mg/kg
Tm dec. (° C.) [5]: 161.1 °C

Clc1ccc(C2(c3ccc(Cl)cc3)OOC3(O2)C2CC4CC(C2)CC3C4)cc1 (centres unmarked) [OZ43, Adamantane-2-spiro-3′-5′, 5′-bis(4′-chlorophenyl)-1′,2′,4′-trioxolane]
Percentage of dead worm [7]: 0
Total dead worm [7]: 0
TWR (%) [7]: 1.1%
Mean total worm burden [7]: 35.4 ± 15.8^a
P. berghei (1 day) ED50 po (P. berghei [2]): 2.1 mg/kg
P. berghei (1 day) ED90 po (P. berghei [2]): 4.0 mg/kg
oral activity based on po ED50/ED90 values (P. berghei [2]): only slightly less orally active than OZ11
Tm dec. (° C.) [5]: 155.8 °C

CC(=O)N1CCC2(CC1)OOC1(O2)C2CC3CC(C2)CC1C3 (centres unmarked) [OZ49, Adamantane-2-spiro-3′-8′-acetyl-1′,2′,4′-trioxa-8′-azaspiro[4.5]decane]
in vitro potency, fold less potent than the analog [8]: 2 fold
Tm dec. (° C.) [5]: 155.7 °C

CCS(=O)(=O)N1CCC2(CC1)OOC1(O2)C2CC3CC(C2)CC1C3 (centres unmarked) [OZ79, Adamantane-2-spiro-3′-8′-ethanesulfonyl-1′,2′,4′-trioxa-8′-azaspiro[4.5]decane]
in vivo activity [1]: good
in vitro potency [8]: very potent
Tm dec. (° C.) [5]: 153.6 °C

CC(=O)OCC(=O)N1CCC2(CC1)OOC1(O2)C2CC3CC(C2)CC1C3 (centres unmarked) [OZ82, Adamantane-2-spiro-3′-8′-acetoxyacetyl-1′,2′,4′-trioxa-8′-azaspiro[4.5]decane]
antimalarial activity, overall assessment [1]: very active
Tm dec. (° C.) [5]: 153.7 °C
IC50 (ng/ml) NF54 [3]: /1.3 ng/ml

O=C(CO)N1CCC2(CC1)OOC1(O2)C2CC3CC(C2)CC1C3 (centres unmarked) [OZ83, Adamantane-2-spiro-3′-8′-hydroxyacetyl-1′,2′,4′-trioxa-8′-azaspiro[4.5]decane]
antimalarial activity, overall assessment [1]: very active
Tm dec. (° C.) [5]: 163.6 °C
IC50 (ng/ml) NF54 [3]: /1.0 ng/ml

O=S(=O)(c1ccc(F)cc1)N1CCC2(CC1)OOC1(O2)C2CC3CC(C2)CC1C3 (centres unmarked) [OZ86, Adamantane-2-spiro-3′-8′-(4′-fluorobenzenesulfonyl)-1′,2′,4′-trioxa-8′-azaspiro[4.5]decane]
Tm dec. (° C.) [5]: 153.0 °C
IC50 (ng/ml) NF54 [3]: /2.3 ng/ml

O=C(CCl)N1CCC2(CC1)OOC1(O2)C2CC3CC(C2)CC1C3 (centres unmarked) [OZ87, Adamantane-2-spiro-3′-8′-chloroacetyl-1′,2′,4′-trioxa-8′-azaspiro[4.5]decane]
antimalarial activity, overall assessment [1]: much less active
Tm dec. (° C.) [5]: 149.7 °C
IC50 (ng/ml) NF54 [3]: /4.5 ng/ml

O=C(OCCC1CCC2(CC1)OOC1(O2)C2CC3CC(C2)CC1C3)c1ccc([N+](=O)[O-])cc1 (centres unmarked) [OZ88, Adamantane-2-spiro-3′-8′-[2′-(4′-nitrobenzoyloxy)ethyl]-1′,2′,4′-trioxaspiro[4.5]decane]
Tm dec. (° C.) [5]: 158.9 °C
IC50 (ng/ml) NF54 [3]: /4.2 ng/ml

OCCC1CCC2(CC1)OOC1(O2)C2CC3CC(C2)CC1C3 (centres unmarked) [OZ89, Adamantane-2-spiro-3′-8′-(2′-hydroxyethyl)-1′,2′,4′-trioxaspiro[4.5]decane]
antimalarial activity, overall assessment [1]: quite active
Tm dec. (° C.) [5]: 154.7 °C
IC50 (ng/ml) NF54 [3]: /1.0 ng/ml

CC1(O)CCC2(CC1)OOC1(O2)C2CC3CC(C2)CC1C3 (centres unmarked) [OZ90, Adamantane-2-spiro-3′-8′-hydroxy-8′-methyl-1′,2′,4′-trioxaspiro[4.5]decane]
antimalarial activity, overall assessment [1]: quite active
Tm dec. (° C.) [5]: 153.2 °C
IC50 (ng/ml) NF54 [3]: /1.1 ng/ml

Adamantane-2-spiro-3′-1′,2′,4′-trioxaspiro[4.5]decan-8′-one pyridinioacetylhydrazone chloride [OZ55]
in vivo activity [1]: minimal
Activity (%) po ([1]; single 10 mg/kg po): 45%
Activity (%) sc ([1]; single 10 mg/kg sc): 97%
Survival (days) po ([1]; single 10 mg/kg po): 6.0 days
Survival (days) sc ([1]; single 10 mg/kg sc): 7.3 days
in vitro potency [8]: quite potent
